Literature values in patent US20170035825A1, “FOOD SUPPLEMENT COMPOSITION COMPRISING A CUCUMBER (CUCUMIS SATIVUS) EXTRACT” (NATURALEA SA, priority 2014, published 2017).

Test system: uterus explants

SMILES: O=C(O)[C@@H]1NC[C@H](O)[C@@H](O)[C@@H]1O [ido-BR1, (2R,3R,4R,5S)-3,4,5-trihydroxypiperidine-2-carboxylic acid]
- effect on inflammation at 72 h (72 h): not significant
- inflammation in the uterus explants (dose-dependent): abrogated inflammation in the uterus explants
